Columns and labels:
Assay in all cases: NCI panel SRB growth inhibition
Type in all cases: cell-based
HCT-15 = details: Homo sapiens, HCT-15, Colon, 48 h
Description: (§1) The operation of this unique screen utilizes […] different human tumor cell lines, representing leukemia, melanoma and cancers of the lung, colon, brain, ovary, breast, prostate, and kidney.
(§2) Culture conditions and plating: The human tumor cell lines of the cancer-screening panel were grown in RPMI 1640 medium containing 5% fetal bovine serum and 2 mM L-glutamine. For a typical screening experiment, cells were inoculated into 96 well microtiter plates in 100 μL at plating densities ranging from 5,000 to 40,000 cells/well depending on the doubling time of individual cell lines (Table 5). After cell inoculation, the microtiter plates were incubated at 37° C., 5% CO2, 95% air and 100% relative humidity for 24 h prior to addition of experimental drugs. After 24 h, two plates of each cell line were fixed in situ with TCA, to represent a measurement of the cell population for each cell line at the time of drug addition (Tz). Evaluation of inhibitory activity on cell proliferation: ECO-04601 was provided as a lyophilized powder with an estimated purity of 90+%. The compound was stored at −20° C. until day of use. ECO-04601 was solubilized in dimethyl sulfoxide at 400-fold the desired final maximum test concentration. At the time of drug addition, an aliquot of frozen concentrate was thawed and diluted to twice the desired final maximum test concentration with complete medium containing 50 μg/mL gentamicin. Additional four, 10-fold or Y2 log serial dilutions were made to provide a total of five drug concentrations plus control. Aliquots of 100 μl of these different drug dilutions were added to the appropriate microtiter wells already containing 100 μl of medium, resulting in the required final drug concentrations (8.0×10^−5 M to 8.0×10^−9 M).
(§3) Following drug addition, the plates were incubated for an additional 48 h at 37° C., 5% CO2, 95% air, and 100% relative humidity. For adherent cells, the assay was terminated by the addition of cold TCA. Cells were fixed in situ by the gentle addition of 50 μl of cold 50% (w/v) TCA (final concentration, 10% TCA) and incubated for 60 minutes at 4° C. Supernatants were discarded, and the plates were washed five times with tap water and air-dried. Sulforhodamine B (SRB) solution (100 μl) at 0.4% (w/v) in 1% acetic acid was added to each well, and plates were incubated for 10 minutes at room temperature. After staining, unbound dye was removed by washing five times with 1% acetic acid and the plates were air-dried. Bound stain was subsequently solubilized with 10 mM trizma base, and the absorbance was read on an automated plate reader at a wavelength of 515 nm. For suspension cells, the methodology was the same except that the assay was terminated by fixing settled cells at the bottom of the wells by gently adding 50 μl of 80% TCA (final concentration, 16% TCA).
(§4) The growth inhibitory activity of ECO-04601 was measured by NCI utilizing the GI50 value, rather than the classical IC50 value.

NCI-H460 = details: Homo sapiens, NCI-H460, Non-Small Cell Lung, 48 h
Description: as §1, §2, §3, §4

COLO 205 = details: Homo sapiens, COLO 205, Colon, 48 h
Description: as §1, §2, §3, §4

K-562 = details: Homo sapiens, K562, K-562, Leukemia, 48 h
Description: as §1, §2, §3, §4

UO-31 = details: Homo sapiens, UO-31, Renal, 48 h
Description: as §1, §2, §3, §4

DU-145 = details: Homo sapiens, DU-145, Prostate, 48 h
Description: as §1, §2, §3, §4

SN12C = details: Homo sapiens, Renal, 48 h
Description: as §1, §2, §3, §4

SW-620 = details: Homo sapiens, SW-620, Colon, 48 h
Description: as §1, §2, §3, §4

MCF7 = details: Homo sapiens, MCF7, Breast, 48 h
Description: as §1, §2, §3, §4

RXF 393 = details: Homo sapiens, RXF 393, Renal, 48 h
Description: as §1, §2, §3, §4

OVCAR-8 = details: Homo sapiens, OVCAR-8, Ovarian, 48 h
Description: as §1, §2, §3, §4

BT-549 = details: Homo sapiens, BT-549, Breast, 48 h
Description: as §1, §2, §3, §4

NCI-H522 = details: Homo sapiens, NCI-H522, Non-Small Cell Lung, 48 h
Description: as §1, §2, §3, §4

CAKI-1 = details: Homo sapiens, CAKI-1, Renal, 48 h
Description: as §1, §2, §3, §4

OVCAR-5 = details: Homo sapiens, OVCAR-5, Ovarian, 48 h
Description: as §1, §2, §3, §4

A549/ATCC = details: Homo sapiens, Non-Small Cell Lung, 48 h
Description: as §1, §2, §3, §4

RPMI-8226 = details: Homo sapiens, RPMI-8226, Leukemia, 48 h
Description: as §1, §2, §3, §4

IGR-OV1 = details: Homo sapiens, IGROV-1, IGR-OV1, Ovarian, 48 h
Description: as §1, §2, §3, §4

786-0 = details: Homo sapiens, 786-0, Renal, 48 h
Description: as §1, §2, §3, §4

SK-MEL-2 = details: Homo sapiens, SK-MEL-2, Melanoma, 48 h
Description: as §1, §2, §3, §4

T-47D = details: Homo sapiens, T47D, Breast, 48 h
Description: as §1, §2, §3, §4

OVCAR-3 = details: Homo sapiens, OVCAR-3, Ovarian, 48 h
Description: as §1, §2, §3, §4

SNB-19 = details: Homo sapiens, SNB-19, CNS, 48 h
Description: as §1, §2, §3, §4

Work on `CC(C)=CCC/C(C)=C/CC/C(C)=C/CN1C(=O)c2cccc(O)c2Nc2c(O)cc(O)cc21` [ECO-04601, 10-farnesyl-4,6,8-trihydroxy-dibenzodiazepin-11-one] yielded a GI50 (HCT-15) of 9.73 µM, a GI50 (NCI-H460) of 13.6 µM and a GI50 (COLO 205) of 12.7 µM. The GI50 (K-562) was 1.43 µM, the GI50 (UO-31) was 19.7 µM and the GI50 (DU-145) was 3.56 µM. It also gave a GI50 (SN12C) of 3.85 µM, a GI50 (SW-620) of 2.72 µM and a GI50 (MCF7) of 10.1 µM. The GI50 (RXF 393) was 7.71 µM, the GI50 (OVCAR-8) was 2.65 µM and the GI50 (BT-549) was 0.11 µM. The GI50 (NCI-H522) was 3.44 µM, the GI50 (CAKI-1) was 15.2 µM and the GI50 (OVCAR-5) was 2.81 µM. It also gave a GI50 (A549/ATCC) of 9.1 µM, a GI50 (RPMI-8226) of 3.15 µM and a GI50 (IGR-OV1) of 3.11 µM. The GI50 (786-0) was 6.99 µM, the GI50 (SK-MEL-2) was 25 µM and the GI50 (T-47D) was 0.77 µM. The GI50 (OVCAR-3) was 13.5 µM and the GI50 (SNB-19) was 2.9 µM.

From patent US7101872B2, “Farnesyl dibenzodiazepinone, and processes for its production” (Ecopia BioSciences, Inc., priority 2003, dated 2006)
